Where a name gives a salt, the structure may show the parent alone.
- melting point: 229 °C
Structure (SMILES): COc1ccc(CNc2nc(CCC(=O)O)nc3sc4c(c23)CCCC4)cc1Cl (as salt: salt) [Example 2, 3-[4-(3-chloro-4-methoxybenzylamino)-5,6,7,8-tetrahydro-[1]-benzothieno-[2,3-d]-pyrimidin-2-yl]propionic acid]

From US20040034040A1, “Use of thienopyrimidines” (priority 2000, published 2004)
